From patent US7371745B2, “Bis-transition-metal-chelate probes” (Rutgers, The State University of New Jersey, priority 2002, dated 2008)
“And” between values parts separate entries of the source, which are not always exact repeats. Equal entries are not always repeated.

Columns and labels:
[1] = Spectroscopic properties of the fluorochromes; assay type: physicochemical
[2] = target: CAP-His6 (Escherichia coli, UniProt P0ACJ8); details: control titration with CAP (no His6 tag)
Procedure: Formation of a complex of the probe with a His6-tagged protein was detected as an increase in fluorescence anisotropy, A, arising from the increase in molecular size and corresponding decrease in rotational dynamics.
Reaction mixtures were titrated with 0-3 μM CAP-His6 (or CAP) by successive addition of 0.5-4 μl aliquots of 2-4 μM CAP-His6 (or CAP) in the same buffer. Fluorescence anisotropy was determined at the start of the titration and 5 min after each successive addition in the titration. All solutions were maintained at 25° C.
Fluorescence measurements were performed using a commercial steady-state fluorescence instrument (QM-1, PTI) equipped with T-format Glan-Thompson polarizers (PTI). […] Slit widths were 10 nm. Fluorescence emission intensities were corrected for background by subtraction of fluorescence emissions intensities for control reactions containing identical concentrations of CAP-His6 or CAP but not containing probe.
Fluorescence anisotropy, A, was calculated using: A=(IVV−GIVH)/(IVV+2GVH) where IVV and IVH are the fluorescent intensities with the excitation polarizer at a vertical position and the emission polarizers at vertical and horizontal positions, respectively, and G is the grating correction factor. […] Equilibrium dissociation constants were calculated using linear regression.

[3] = target: T1, (CAP-His6)-DNA^F complex (Escherichia coli, UniProt P0ACJ8); details: control titration with the CAP-DNA^F complex
T1 sequence (P0ACJ8 2-210, added parts left off, one chain of several): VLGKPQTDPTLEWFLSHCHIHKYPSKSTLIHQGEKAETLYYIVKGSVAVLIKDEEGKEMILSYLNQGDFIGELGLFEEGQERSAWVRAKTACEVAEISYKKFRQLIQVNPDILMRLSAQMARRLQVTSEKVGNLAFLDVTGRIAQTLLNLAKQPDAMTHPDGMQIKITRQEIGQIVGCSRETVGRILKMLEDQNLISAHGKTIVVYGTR
Procedure: FRET assays using the probes according to the invention then were performed to verify interactions, to detect a target material, and to measure an intermolecular distance.
Reaction mixtures (200 μl, in 50 μl quartz micro-cuvettes (Starna)) contained 5 nM DNA^F and 50 nM CAP-His6 (or CAP) in buffer C. […] Fluorescence emission was determined at the start of the titration and 5 min after each successive addition in the titration. All solutions were maintained at 25° C.
Fluorescence emission intensities, F, were measured using a commercial steady-state fluorescence instrument (QM-1, PTI) equipped with T-format Glan-Thompson polarizers (PTI) set at 54.7° (“magic angle”).
Data were plotted as E vs. titrant concentration, and binding curves and equilibrium dissociation constants were calculated using non-linear regression (as described in Gunasekera, A. et al., J. Biol. Chem., 267:14,713-14,720 (1992)).

[4] = target: T1, (CAP-His6)-DNA^F complex; details: for donor-acceptor distance, R: fluorescein on DNA^F to probe on His6 of CAP-His6

Sequence of CAP-His6 (P0ACJ8 2-210, added parts left off): as the sequence (P0ACJ8 2-210, added parts left off, one chain of several) above

| Substance | quantum yield (Q) [1] | λmax, em [1] | λmax, exc [1] | specificity [2] | specificity [3] | donor-acceptor distance, R [4] | efficiency of FRET at saturation, Esat ([4]; fluorescein donor on DNA^F, probe as acceptor) |
| --- | --- | --- | --- | --- | --- | --- | --- |
| (Ni^2+-NTA)2-Cy3 | 0.04 | 565 nm | 552 nm | > 95% | > 95% | 58 Å | – |
| (Ni^2+-NTA)2-Cy5 | 0.05 | 668 nm | 650 nm | > 95% | > 95% | 53 Å | 0.45 and 0.25 |
